In the test the target is T1, human transferrin receptor (hTfR) (Homo sapiens, UniProt P02786).
T1 construct: made in house
The test can be described thus: Evaluation of molecular interaction between transferrin receptor (hTfR) and peptide using surface plasmon resonance (SPR). It is filed as binding. The settings on record: surface plasmon resonance, binding to hTfR; KD class symbol; read-out: SPR (KD value). In a few lines: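 Using a Ni-NTA surface bearing covalently coupled hTfR dimer, peptides were tested at five concentrations from 5 to 100 nM. Running buffer was 10 mM HEPES pH 8.0, 150 mM NaCl, 0.05% Tween 20, 0.1% BSA, 1.0% DMSO; single-cycle sensorgrams were least-squares fitted for KD.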

Starred links: 1 amine or outer side, 2 acyl side, 3 side chain; linkers in the order of their positions; H or OH if unused. Positions of bridges follow the written chain, without caps; N, C: chain ends. Non-standard residues stand in square brackets, D forms with d. Residues, ends and D or L forms follow the SMILES beside them. *: point of attachment. X3 = CN([C@@H](Cc1cccc(C(=O)[*:3])c1)C(=O)[*:2])[*:1]; NMePhe(4-COOH) = CN[C@@H](Cc1ccc(C(=O)O)cc1)C(=O)O; X1 = O=C([C@H](Cc1cccc(C(=O)[*:3])c1)N[*:1])[*:2]; NMePhe(3-Cl) = CN[C@@H](Cc1cccc(Cl)c1)C(=O)O; NH(CH2CH2O)4Me = COCCOCCOCCOCCN*; PEG4 = NCCOCCOCCOCCOCCC(=O)O; Carboxymethyl = O=C(O)C*

T1 sequence (P02786 89-760 limits assumed): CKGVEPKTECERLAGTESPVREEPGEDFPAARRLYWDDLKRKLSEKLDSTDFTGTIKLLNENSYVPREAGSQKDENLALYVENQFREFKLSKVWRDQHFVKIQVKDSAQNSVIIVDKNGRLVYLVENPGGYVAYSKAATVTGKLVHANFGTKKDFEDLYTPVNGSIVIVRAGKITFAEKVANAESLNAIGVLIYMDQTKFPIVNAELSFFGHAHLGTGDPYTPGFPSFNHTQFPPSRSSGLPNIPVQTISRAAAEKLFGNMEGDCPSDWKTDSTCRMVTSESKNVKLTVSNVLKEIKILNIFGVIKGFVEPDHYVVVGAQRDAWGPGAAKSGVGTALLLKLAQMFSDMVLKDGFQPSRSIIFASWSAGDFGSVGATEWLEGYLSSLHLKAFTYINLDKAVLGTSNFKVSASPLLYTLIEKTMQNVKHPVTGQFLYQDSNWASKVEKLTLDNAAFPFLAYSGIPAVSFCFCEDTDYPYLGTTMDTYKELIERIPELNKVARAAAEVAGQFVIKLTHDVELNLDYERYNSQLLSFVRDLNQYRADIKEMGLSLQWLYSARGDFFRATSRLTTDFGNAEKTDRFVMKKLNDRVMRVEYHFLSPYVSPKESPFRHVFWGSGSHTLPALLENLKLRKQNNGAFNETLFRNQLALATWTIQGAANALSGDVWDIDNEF

On to `CC[C@H](C)[C@@H]1NC(=O)[C@H](Cc2ccc(OCC(=O)O)cc2)NC(=O)[C@H](Cc2ccc(O)cc2)NC(=O)[C@H](CC(N)=O)NC(=O)[C@H](Cc2c[nH]c3ccccc23)NC(=O)[C@H](C(C)C)NC(=O)[C@H](Cc2cccc(Cl)c2)N(C)C(=O)[C@H](C(C)C)NC(=O)[C@H](C)NC(=O)CSC[C@@H](C(=O)NCCOCCOCCOCCOCCC(N)=O)NC(=O)[C@H](Cc2ccc(O)cc2)N(C)C(=O)[C@H](Cc2cccc(C(=O)NCCOCCOCCOCCOC)c2)NC(=O)[C@H](CCCNC(=N)N)NC(=O)[C@H](CCC(=O)NCCOCCOCCOCCOC)NC(=O)[C@H]([C@@H](C)CC)NC1=O` [compound 126], for which the Kd was in the range of 1 to 100 nM.
Under `CC[C@H](C)[C@@H]1NC(=O)[C@H](Cc2ccc(OCC(=O)O)cc2)NC(=O)[C@H](Cc2ccc(O)cc2)NC(=O)[C@H](CC(N)=O)NC(=O)[C@H](Cc2c[nH]c3ccccc23)NC(=O)[C@H](C(C)C)NC(=O)[C@H](Cc2cccc(Cl)c2)N(C)C(=O)[C@H](C(C)C)NC(=O)[C@H](C)NC(=O)CSC[C@@H](C(=O)NCCOCCOCCOCCOCCC(N)=O)NC(=O)[C@H](Cc2ccc(C(=O)NCCOCCOCCOCCOC)cc2)N(C)C(=O)[C@H](Cc2cccc(C(=O)NCCOCCOCCOCCOC)c2)NC(=O)[C@H](CCCNC(=N)N)NC(=O)[C@H](CCC(N)=O)NC(=O)[C@H]([C@@H](C)CC)NC1=O` [compound 127] ({CH2CO}-AV[NMePhe(3-Cl)]VWNYY(Carboxymethyl)IIQR[X1](NH(CH2CH2O)4Me)[NMePhe(4-COOH)](NH(CH2CH2O)4Me)C[PEG4]-NH2; thioether N-15) stands 1 to 100 nM; under `CC[C@H](C)[C@@H]1NC(=O)[C@H](Cc2ccc(OCC(=O)O)cc2)NC(=O)[C@H](Cc2ccc(O)cc2)NC(=O)[C@H](CC(N)=O)NC(=O)[C@H](Cc2c[nH]c3ccccc23)NC(=O)[C@H](C(C)C)NC(=O)[C@H](Cc2cccc(Cl)c2)N(C)C(=O)[C@H](C(C)C)NC(=O)[C@H](C)NC(=O)CSC[C@@H](C(=O)NCCOCCOCCOCCOCCC(N)=O)NC(=O)[C@H](Cc2cccc(C(=O)NCCOCCOCCOCCOC)c2)N(C)C(=O)[C@H](Cc2cccc(C(=O)NCCOCCOCCOCCOC)c2)NC(=O)[C@H](CCCNC(=N)N)NC(=O)[C@H](CCC(N)=O)NC(=O)[C@H]([C@@H](C)CC)NC1=O` [compound 128] ({CH2CO}-AV[NMePhe(3-Cl)]VWNYY(Carboxymethyl)IIQR[X1](NH(CH2CH2O)4Me)[X3](NH(CH2CH2O)4Me)C[PEG4]-NH2; thioether N-15), 1 to 100 nM; under `CC[C@H](C)[C@@H]1NC(=O)[C@H](Cc2ccc(OCC(=O)O)cc2)NC(=O)[C@H](Cc2ccc(O)cc2)NC(=O)[C@H](CC(N)=O)NC(=O)[C@H](Cc2c[nH]c3ccccc23)NC(=O)[C@H](C(C)C)NC(=O)[C@H](Cc2cccc(Cl)c2)N(C)C(=O)[C@H](C(C)C)NC(=O)[C@H](C)NC(=O)CSC[C@@H](C(=O)NCC(=O)N[C@H](CO)C(=O)N[C@H](CO)C(=O)N[C@H](CO)C(=O)N[C@H](CO)C(=O)N[C@H](CO)C(N)=O)NC(=O)[C@H](Cc2cccc(C(=O)NCCOCCOCCOCCOC)c2)N(C)C(=O)[C@H](Cc2cccc(C(=O)NCCOCCOCCOCCOC)c2)NC(=O)[C@H](CCCNC(=N)N)NC(=O)[C@H](CCC(N)=O)NC(=O)[C@H]([C@@H](C)CC)NC1=O` [compound 129], 1 to 100 nM.
To `CC[C@H](C)[C@@H]1NC(=O)[C@H](Cc2ccc(OCC(=O)O)cc2)NC(=O)[C@H](Cc2ccc(O)cc2)NC(=O)[C@H](CC(N)=O)NC(=O)[C@H](Cc2c[nH]c3ncccc23)NC(=O)[C@H](C(C)C)NC(=O)[C@H](Cc2cccc(Cl)c2)N(C)C(=O)[C@H](C(C)C)NC(=O)[C@H](C)NC(=O)CSC[C@@H](C(=O)NCCOCCOCCOCCOCCC(N)=O)NC(=O)[C@H](Cc2ccc(O)cc2)N(C)C(=O)[C@H](Cc2cccc(C(=O)NCCOCCOCCOCCOC)c2)NC(=O)[C@H](CCCNC(=N)N)NC(=O)[C@H](CCC(=O)NCCOCCOCCOCCOC)NC(=O)[C@H]([C@@H](C)CC)NC1=O` [compound 130] belongs 1 to 100 nM.
